Active and inactive are the calls of the source.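 The calls were made as follows: active = EC50 under a set limit in control cells lacking the mosquito receptor, marking a fluorescence artifact; inactive = the rest.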
target: HEK293 Galpha15/GCaMP6s without NPYLR7, calcium fluorescence; assay: calcium response in NPYLR7-null HEK293 cells, dose response, counter-screen for mosquito NPYLR7 agonist project, cell-based, HEK293 lacking NPYLR7 (AID 1259426);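 also: potency for a rise in fluorescence over baseline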

Row | SMILES | EC50
1 | CCCCCN=C(N)NN=Cc1c[nH]c2ccc(OC)cc12 | > 20 µM (inactive)
2 | N#CC(=Cc1c(F)c(F)c(F)c(F)c1F)c1ccccn1 | > 20 µM (inactive)
3 | CN1C(=S)N(c2ccc3c(c2)CCC3)C(=O)/C1=C\c1ccncc1 | > 20 µM (inactive)
4 | Nc1nc(Cl)nc2c1ncn2[C@@H]1O[C@H](CO)[C@H](O)C1O (stereo partly specified) | 1.42 µM
5 | COc1ccccc1N=c1oc2cc(O)ccc2cc1-c1nc2ccccc2[nH]1 | 0.805 µM
6 | COc1cccc(CN2COc3ccc4c(c3C2)O/C(=C\c2ccncc2)C4=O)c1 | 11.1 µM
7 | CC1(C)CC(c2[nH]cnc2-c2ccccc2)CCO1 (stereo unspecified) | > 20 µM (inactive)
8 | COc1ccc(S(=O)(=O)NCC2CCCN(C(=O)CSc3ccccc3)C2)cc1 (stereo unspecified) | > 20 µM (inactive)
9 | CCOC(=O)C1=C(C)NC(C)=C(C(=O)OCC)C1c1cc(Cl)ccc1OC(F)F | 14.7 µM
10 | Cc1ccc2c(c1)CCCN2CC(=O)N(CCC(N)=O)c1ccccc1 | 16.8 µM
11 | CCC(C)n1cc(/C=C2/C(=O)NC(=O)N(c3ccc4c(c3)OCO4)C2=O)c2ccccc21 (stereo unspecified) | > 20 µM (inactive)
12 | Cc1c(NC(=O)COC(=O)C(C#N)=Cc2ccc(N(C)C)cc2)c(=O)n(-c2ccccc2)n1C | > 20 µM (inactive)
13 | CCCCN(C)C1=CC2=CC(=C(C#N)C#N)CCC2CC1 (stereo unspecified) | < 0.039 µM
14 | C[C@@H]1OC(O[C@H]2[C@H](OC(=O)[C@]34CCC(C)(C)CC3C3=CCC5[C@@]6(C)CC[C@H](OC7O[C@@H](C)[C@H](O[C@@H]8OC[C@@H](O)[C@H](O)[C@H]8O)[C@@H](O)[C@H]7O)C(C)(C)C6CC[C@@]5(C)[C@]3(C)CC4O)OC[C@H](O)[C@H]2O)[C@H](O)[C@H](O)[C@H]1O[C@@H]1O[C@H](CO)[C@@H](O)[C@H](O)[C@H]1O (stereo partly specified) | 10.3 µM
15 | O=c1oc2cc(O)ccc2cc1-c1nc2ccccc2s1 | 0.0533 µM
16 | CCC(CO)[n+]1c(C)cc(C=C2Sc3ccccc3N2Cc2ccccc2)cc1C (stereo unspecified) | > 20 µM (inactive)
17 | COc1ccc(CCN2COc3ccc4c(c3C2)O/C(=C\c2ccncc2)C4=O)cc1OC | 14.8 µM
18 | N#Cc1cccc(C(=O)N2CCN(C(c3ccccc3)c3ccc(Br)cc3)CC2)c1 (stereo unspecified) | > 20 µM (inactive)
19 | CCN1CCN(C2=CC3=CC(=C(C#N)C#N)CCC3CC2)CC1 (stereo unspecified) | < 0.039 µM
20 | Cc1nc2ncccc2cc1C(=O)N1CCC2(CCNC(=O)CC2)CC1 | > 20 µM (inactive)
21 | CCCN1CCc2c(sc3c2c(NC(CC)CO)nc2nnnn23)C1 (stereo unspecified) | > 20 µM (inactive)
22 | O=C1NC(=O)C2=Cc3ccc(O)cc3OC2(O)N1 (stereo unspecified) | 0.247 µM
23 | Cc1cc2nc3c(=O)[nH]c(=O)nc-3n(C[C@H](O)[C@H](O)[C@H](O)CO)c2cc1C | 0.508 µM
24 | N#CC1C(=N)Oc2cc(O)ccc2C1c1ccncc1 (stereo unspecified) | 7.22 µM
25 | O=C1c2cccc3c(Nc4ccccc4)ccc(c23)C(=O)N1c1ccccc1 | 5.39 µM
26 | O=C1NC(=S)SC1=Cc1cc(O)c(O)c(Cl)c1 | > 20 µM (inactive)

Row | SMILES | EC50
27 | CCn1c(O)c(C=Nc2c(C#N)c(C)c(C)n2C2CCCCC2)c(=O)n(CC)c1=S | 1.31 µM
28 | COc1ccc(-c2cccc(-c3ccc(NC(=O)c4oc5ccccc5c4C)cc3)n2)cc1 | > 20 µM (inactive)
29 | COc1cc(C=C2C=c3c(O)cccc3=C2O)cc(Cl)c1O | 0.524 µM
30 | COc1ccc(OC)c(CCNc2nc3cnc(-c4ccc5c(c4)OCO5)cc3n2C)c1 | > 20 µM (inactive)
31 | O=C1SC(Nc2ccc(I)cc2)C(=O)N1c1ccccc1 (stereo unspecified) | 18.1 µM
32 | O=C1/C(=C/c2cccc(Br)c2)Oc2c1ccc(O)c2CN1CCN(CCO)CC1 | 12.7 µM
33 | O=c1[nH]c(CCl)nc2sc3c(c12)CCN(Cc1ccccc1)C3 | > 20 µM (inactive)
34 | Cc1csc(-c2cc3ccc(O)c(CN4CCN(CCO)CC4)c3oc2=O)n1 | < 0.039 µM
35 | O=C(CSc1cn(CC(=O)N2CCCCCC2)c2ccccc12)NC1CCCC1 | > 20 µM (inactive)
36 | Cc1cc(C=C2Sc3ccccc3N2C)cc(C)[n+]1Cc1ccncc1 | 18.9 µM
37 | COc1cccc(-n2c(O)c(C=Nc3cc(OC)ccc3OC)c3ccccc3c2=O)c1 | > 20 µM (inactive)
38 | CCOC=C(C#N)c1nc(C)cs1 | 2.43 µM
39 | O=C(NCCSc1ccc(Cl)cc1)c1ccc2c(=O)n3c(nc2c1)CCC3 | > 20 µM (inactive)
40 | COCCn1c(C)cn2c3c(=O)n(Cc4ccc(Cl)cc4)c(=O)n(C)c3nc12 | > 20 µM (inactive)
41 | CCc1nn(C(C)C(=O)NC(C)CCc2ccco2)c(=O)c2cc3occc3n12 (stereo unspecified) | 0.743 µM
42 | CN1C=CC(=C/C=C2/C=Nc3ccccc32)C=C1 | 9.41 µM
43 | COc1cc(C=C(C#N)C(=O)OC(C)C)cc(Cl)c1O | > 20 µM (inactive)
44 | Cc1cc(O)c(CN2CCCCC2)c2c1C(=O)/C(=C/c1cc3ccccc3o1)O2 | 18.5 µM
45 | Nc1nc(Cl)nc2c1ncn2[C@@H]1O[C@H](CO)[C@@H](O)[C@H]1O | 1.15 µM
46 | N#CC1C(=N)SC(=N)C(C#N)C1c1ccccc1F (stereo unspecified) | 10.2 µM
47 | O=C(O)c1ccccc1-c1c2cc(Br)c(=O)cc-2oc2[c]([Hg])c(O)c(Br)cc12 | < 0.039 µM
48 | CN1C(=S)N(CCCN2CCOCC2)C(=O)/C1=C/c1ccc(N(C)C)cc1 | > 20 µM (inactive)
49 | COc1ccc(/C=C2\Oc3c(ccc4c3CN(Cc3ccncc3)CO4)C2=O)cc1OC | 9.55 µM
50 | CCN(CC)c1ccc2c(-c3ccccc3C(=O)O)c3ccc(=[N+](CC)CC)cc-3oc2c1 | 3.62 µM
51 | Cc1ccc(-c2nc3nc(N)n(C)c(=O)c3[nH]c2=O)cc1 | > 20 µM (inactive)

Source: PubChem BioAssay AID1259426 (Fisher Drug Discovery Resource Center, 2018)
